This is an account of results in US6770650B2, “Cyclic amine derivatives-CCR-3 receptor antagonists” (Syntex (U.S.A.) LLC, priority 1997, dated 2004).

Data set [1] relates to CCR-3 L1.2 transfectant cells. Briefly: Inhibition of eotaxin mediated chemotaxis of CCR-3 L1.2 transfectant cells. Particulars: concentration required to reduce eotaxin mediated chemotaxis of CCR-3 L1.2 transfected cells by 50%. In kind it is cell-based. As for the experimental part: The CCR-3 antagonistic activity of the compounds of this invention was determined by measuring the inhibition of eotaxin mediated chemotaxis of the CCR-3 L1.2 transfectant cells, using a slight modification of the method described in Ponath, P. D. et al., J. Clin. Invest. 97: 604-612 (1996). The assay was performed in a 24-well chemotaxis plate (Costar Corp., Cambridge Mass.) CCR-3 L1.2 transfectant cells were grown in culture medium containing RPMI 1640, 10% Hyclone™ fetal calf serum, […] 2-mercaptoethanol and Geneticin 418 (0.8 mg/ml). 18-24 hours before the assay, the transfected cells were treated with n-butyric acid at a final concentration of 5 mM/1×10^6 cells/ml, isolated and resuspended at 1×10^7 cells/ml in assay medium containing equal parts of RPMI 1640 and Medium 199 (M 199) with 0.5% bovine serum albumin.
Human eotaxin suspended in phosphate buffered saline at 1 mg/ml was added to bottom chamber in a final concentration of 100 nm. Transwell culture inserts (Costar Corp., Cambridge Mass.) having 3 micron pore size were inserted into each well and L1.2 cells (1×10^6) were added to the top chamber in a final volume of 100 μl. Test compounds in DMSO were added both to the top and bottom chambers such that the final DMSO volume was 0.5%. The assay was performed against two sets of controls. The positive control contained cells with no test compound in the top chamber and only eotaxin in the lower chamber. The negative control contained cells with no test compound in the top chamber and neither eotaxin nor test compound in lower chamber. The plate was incubated at 37° C. After 4 h, the inserts were removed from the chambers and the cells that had migrated to the bottom chamber were counted by pipetting out 500 μl of the cell suspension from the lower chamber to 1.2 ml Cluster tubes (Costar) and counting them on a FACS for 30 sec.
The IC50 value (concentration of test compound required to reduce eotaxin mediated chemotaxis of CCR-3 L1.2 transfected cells by 50%) for some of the compounds of the invention was: […]

For another data set, the target named is T1, CCR-3 receptor (Homo sapiens, UniProt P51677).
T1 construct: expressed in transfected cells; host or cells: L1.2 cells (murine pre-B lymphoma line)
T1 sequence (P51677 1-355): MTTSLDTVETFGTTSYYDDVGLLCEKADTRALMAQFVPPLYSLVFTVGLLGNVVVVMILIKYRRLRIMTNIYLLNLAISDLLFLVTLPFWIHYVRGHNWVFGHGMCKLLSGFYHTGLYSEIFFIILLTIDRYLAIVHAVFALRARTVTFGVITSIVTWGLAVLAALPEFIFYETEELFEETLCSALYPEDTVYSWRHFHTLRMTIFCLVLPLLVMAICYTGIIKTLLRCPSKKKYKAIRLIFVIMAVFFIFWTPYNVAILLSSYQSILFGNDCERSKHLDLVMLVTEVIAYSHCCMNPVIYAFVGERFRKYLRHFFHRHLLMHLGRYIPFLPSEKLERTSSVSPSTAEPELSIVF
Briefly: CCR-3 Receptor Binding Assay, inhibition of 125I eotaxin binding to CCR-3 L1.2 transfectant cells. Particulars: concentration required to reduce 125I-eotaxin binding to the CCR-3 L1.2 transfected cells by 50%. As to the method: The CCR-3 antagonistic activity of the compounds of the invention was determined by their ability to inhibit the binding of ^125I eotaxin to CCR-3 L1.2 transfectant cells ((see Ponath, P. D. et al., J. Exp. Med., Vol. 183, 2437-2448, (1996)).
The assay was performed in Costar 96-well polypropylene round bottom plates. Test compounds were dissolved in DMSO and then diluted with binding buffer (50 mM HEPES, 1 mM CaCl2, 5 mM MgCl2, 0.5% bovine serum albumin (BSA), 0.02% sodium azide, pH 7.24) such that the final DMSO concentration was 2%. 25 μl of the test solution or only buffer with DMSO (control samples) was added to each well, followed by the addition of 25 μl of ^125I-eotaxin ([…]) (NEX314, New England Nuclear, Boston, Mass.) and 1.5×10^5 of the CCR-3 L1.2 transfected cells in 25 μl binding buffer. The final reaction volume was 75 μl.
After incubating the reaction mixture for 1 h at room temperature, the reaction was terminated by filtering the reaction mixture through polyethylenimine treated Packard Unifilter GF/C filter plate (Packard, Chicago, Ill.). The filters were washed four times with ice cold wash buffer containing 10 mm HEPES and 0.5M sodium chloride (pH 7.2) and dried at 65° C. for approximately 10 min. 25 μl/well of Microscint-20™ scintillation fluid (Packard) was added and the radioactivity retained on the filters was determined by using the Packard TopCount™.
The IC50 value (concentration of test compound required to reduce ^125I-eotaxin binding to the CCR-3 L1.2 transfected cells by 50%) for some of the compounds of the invention was: […]

For orientation: IC50 means the point on the concentration scale where inhibition reaches its midpoint. Read a low IC50 as inhibition by little substance. In general, melting point refers to the temperature, or range, at which the solid turns liquid.

Molecules are shown by their SMILES.

Turning to `COc1cc(N)c(Cl)cc1C(=O)NCC1CCN(CC(NC(=O)c2ccc(C)cc2)C(C)C)CC1` (racemic) [compound 59, N-{1-(RS)-[4-(4-Amino-5-chloro-2-methoxyphenylcarbonylaminomethyl)piperidin-1-yl-methyl]-2-methylpropyl}-4-methylbenzamide], the IC50 in data set [1] was determined as 210 nM; at CCR-3 receptor, 950 nM.

As for `COc1cccc(NC(=O)NC2CCCCC2N2CCN(Cc3ccc(Cl)c(Cl)c3)CC2)c1` (racemic) [compound 84, 1-{2(RS)-[4-(3,4-Dichlorobenzyl)piperazin-1-yl]cyclohexyl}-3-(3-methoxyphenyl)urea], the IC50 in data set [1] was found to be 460 nM; at CCR-3 receptor it was 690 nM.

`Cc1ccc(C(=O)N[C@H](CN2CCC(Cc3ccc(Cl)c(Cl)c3)CC2)C(C)C)cc1` [compound 57, N-{1-(S)-[4-(3,4-Dichlorobenzyl)piperidin-1-ylmethyl]-2-methylpropyl}-4-methylbenzamide] returned an IC50 in data set [1] of 240 nM.

`Cc1cc(C)c(NC(=O)N[C@@H](CN2CCN(Cc3ccc(Cl)c(Cl)c3)CC2)C(C)C)c(C)c1` [compound 93] returned a melting point of 271.1 to 275.5 °C. The molecule also displayed an IC50 in data set [1] of 60 nM. On CCR-3 receptor, this molecule gave an IC50 of 3370 nM.
